Laboratory results from patent US20200085742A1, “NANOSCALE CARRIERS FOR THE DELIVERY OR CO-DELIVERY OF CHEMOTHERAPEUTICS, NUCLEIC ACIDS AND PHOTOSENSITIZERS” (The University of Chicago, priority 2013, published 2020).
Read-outs that look alike come from different tables or passages of the source.

Tests used:
Assay type in all cases: cell-based, human
[1] = system: A2780 cells; assay: In vitro cytotoxicity, MTS assay; conditions: after a 72 h incubation, read-out: Cisplatin IC50
Experimental: (§1) ES-2, OVCAR-3, SKOV-3, A2780, and A2780/CDDP cells were seeded at 5000 cells per well in 96-well plates and further cultured for 24 h. The culture media were replaced by 100 μL of fresh culture media containing 10% FBS. Cisplatin solution, NCP-1, NCP-1/siRNA containing pooled siRNAs, NCP-1/siRNA containing single siRNA, and Zn control/siRNA containing pooled siRNAs were added to the cells at different cisplatin or siRNA dose. Following incubation for 24 h, the cell viability was determined by (3-(4,5-dimethylthiazol-2-yl)-5-(3-carboxymethoxyphenyl)-2-(4-sulfophenyl)-2H-tetrazolium) (MTS) assay (Promega Corporation, Madison, Wis., United States of America) according to the manufacturer's instructions. […] The cytotoxicity of Zn control/siRNAs at the siRNA doses corresponding to cisplatin IC50 values was also evaluated.

[2] = system: A2780/CDDP cells; assay: In vitro cytotoxicity, MTS assay; conditions: after a 72 h incubation, read-out: Cisplatin IC50
Experimental: as §1

[3] = system: ES-2 cells; assay: In vitro cytotoxicity, MTS assay; conditions: after a 72 h incubation, read-out: Cisplatin IC50
Experimental: as §1

[4] = system: OVCAR-3 cells; assay: In vitro cytotoxicity, MTS assay; conditions: after a 72 h incubation, read-out: Cisplatin IC50
Experimental: as §1

[5] = system: SKOV-3 cells; assay: In vitro cytotoxicity, MTS assay; conditions: after a 72 h incubation, read-out: Cisplatin IC50
Experimental: as §1

[6] = system: SKOV-3 cells; assay: Cytotoxicity of UiO formulations, MTS assay; conditions: read-out: cisplatin IC50
Experimental: To examine whether the efficient and simultaneous knockdown of three MDR-relevant genes including survivin, Bcl-2, and P-gp could effectively reverse the cisplatin resistance in ovarian cancer cells, the cytotoxicity of free cisplatin, UiO-Cis, and siRNA/UiO-Cis was assessed by 3-(4,5-dimethylthiazol-2-yl)-5-(3-carboxymethoxy-phenyl)-2-(4-sulfophenyl)-2H-tetrazolium (MTS) assay.

[7] = system: cisplatin-resistant ovarian cancer cells; assay: DNA ladder and Annexin V conjugate staining (UiO)
Experimental: Annexin V conjugate staining provided further evidence to the apoptosis induced by siRNA/UiO-Cis. siRNA loaded in the NMOFs were efficiently internalized into the cytoplasm after a 24-h incubation to trigger MDR-relevant gene silencing.

[8] = system: SQ20B cells; assay: Time-dependent cellular uptake (ICP-MS, fluorimetry); conditions: cisplatin dose 5 μM
Experimental: The cellular uptake of NCP-1 particles in SQ20B cells was quantified by ICP-MS. […] The cells were centrifuged at 3,000 rpm for 5 min and the cell pellet was digested with 500 μL of concentrated nitric acid. […] Results were expressed as the amount of cisplatin (ng) per 10^5 cells.

[9] = system: SQ20B cells; assay: Efflux of cisplatin and pyrolipid; conditions: after 4-h uptake
Experimental: The efflux of cisplatin and pyrolipid in SQ20B cells was quantified as follows. SQ20B cells were seeded on 6-well plates at 5×10^5 cells/well and incubated for 24 h. […] After incubating for 4 h, the culture medium was discarded and the cells were washed with PBS three times. […] Results were expressed as the percent of the amount of cisplatin or pyrolipid being effluxed compared to the 4-h cellular uptake amount. In order to understand the cellular uptake dynamics of NCP-1-pyrolipid, the efflux of cisplatin and pyrolipid in different formulations was determined. […] The cisplatin or pyrolipid amounts detected in the culture medium were compared with the 4-h uptake amounts to give the percent efflux (Table 9).

[10] = system: HNSCC135 cells; assay: Cytotoxicity with or without irradiation, MTS assay; conditions: read-out: Cisplatin IC50
Experimental: (§2) The cells were seeded on 96-well plates at 2500 cells/well. […] After a 24-h incubation, the cells were irradiated with LED light (670 nm) at 60 mW/cm^2 for 15 min (equals to 54 J/cm^2). The cells without irradiation treatment served as controls. The cells were further incubated for 48 h. The cell viability was detected by (3-(4,5-dimethylthiazol-2-yl)-5-(3-carboxymethoxyphenyl)-2-(4-sulfophenyl)-2H-tetrazolium) (MTS) assay (Promega, Madison, Wis., United States of America) and the IC50 values were calculated accordingly. […] These findings were further supported by the flow cytometry results (Table 11).

[11] = system: JSQ3 cells; assay: as above; conditions: read-out: Cisplatin IC50
Experimental: as §2

[12] = system: SCC61 cells; assay: as above; conditions: read-out: Cisplatin IC50
Experimental: as §2

[13] = system: SQ20B cells; assay: as above; conditions: read-out: Cisplatin IC50
Experimental: as §2

[14] = system: SQ20B cells; assay: Flow cytometry, apoptosis and necrosis (Annexin V/PI)
Experimental: SQ20B cells were seeded at 1×10^6 cells per well in 6-well plates and further cultured for 24 h. […] Cells incubated with PBS served as control. After a 24 h […] incubation, the cells were irradiated with light emitting diode (LED) light (670 nm) at 60 mW/cm^2 for 15 min (equals to 54 J/cm^2). Following a further incubation of 48 h, the floating and adherent cells were collected and stained with Alexa Fluor 488 Annexin V/dead cell apoptosis kit with Alexa Fluor 488 annexin V and PI (Invitrogen, Carlsbad, Calif., United States of America) according to manufacturer's instructions. The apoptosis and necrosis was examined on a flow cytometer (LSRII Blue, Becton, Dickinson, and Company, Franklin Lakes, N.J., United States of America).

[15] = system: H460 cells; assay: Cytotoxicity of Pten and Pten-NCP
[16] = system: A2780 cells; assay: Cytotoxicity of cisplatin/GMP NCP, MTS assay
Experimental: (§3) The cytotoxicity of NCP particles carrying cisplatin, GMP, and thiol siRNAs targeting survivin, Bcl-2, and ERCC-1 were evaluated against human ovarian cancer cells A2780, A2780/CDDP, SKOV-3 and human non-small cell lung cancer cell H460 by MTS assay.

[17] = system: A2780R cells; assay: Cytotoxicity of cisplatin/GMP NCP, MTS assay
Experimental: as §3

[18] = system: SKOV-3 cells; assay: Cytotoxicity of cisplatin/GMP NCP, MTS assay
[19] = system: H460 cells; assay: Cytotoxicity of cisplatin/GMP NCP, MTS assay
[20] = read-out: IC50 as GMP concentration (numbers in parenthesis)

In the case of `N.N.[Cl][Pt][Cl]` [Free cisplatin, cisplatin], the IC50 [1] is reported as 4.4 ± 1 µM, the IC50 [2] is reported as 24 ± 3.1 µM and the IC50 [3] is reported as 37.6 ± 1.9 µM. For the same molecule, the IC50 [4] was 44.4 ± 3.2 µM, the IC50 [5] was 59.5 ± 1.2 µM and the IC50 [6] was 48.5 ± 4.3 µM. For the same molecule, the “DNA fragmentation (DNA ladder)” value [7] was “No DNA fragmentation was detectable”, the Cisplatin uptake ([8]; 1 h) was 51.7 ± 4.5 ng/10^5 cells and the Cisplatin uptake ([8]; 2 h) was 43.5 ± 1.4 ng/10^5 cells. The Cisplatin uptake ([8]; 4 h) was 38.1 ± 0.8 ng/10^5 cells, the Cisplatin uptake ([8]; 24 h) was 38.5 ± 1.3 ng/10^5 cells and the Cisplatin efflux ([9]; 1 h) was 12.0 ± 1.5%. The Cisplatin efflux ([9]; 2 h) was 13.5 ± 0.2%, the Cisplatin efflux ([9]; 4 h) was 18.2 ± 5.1% and the Cisplatin efflux ([9]; 24 h) was 20.0 ± 5.4%. The Cisplatin efflux ([9]; 24 h, listed as free cisplatin) was 20.0%, the IC50 ([10]; irradiation No) was 3.37 ± 0.73 µM and the IC50 ([10]; irradiation Yes (670 nm, 54 J/cm^2)) was 2.65 ± 0.13 µM. It also gave an IC50 ([11]; irradiation No) of 11.3 ± 1.2 µM, an IC50 ([11]; irradiation Yes) of 13.3 ± 2.03 µM and an IC50 ([12]; irradiation No) of 3.46 ± 0.08 µM. The IC50 ([12]; irradiation Yes) was 3.69 ± 0.28 µM, the IC50 ([13]; irradiation No) was 3.92 ± 0.15 µM and the IC50 ([13]; irradiation Yes) was 4.18 ± 0.11 µM. It also gave a Necrosis % ([14]; w/irradiation) of 0.2%, an Apoptosis % ([14]; w/irradiation, cisplatin 5 μM or equivalent pyrolipid) of 38.1% and an Apoptosis % ([14]; w/o irradiation) of 37.9%. The Necrosis % ([14]; w/o irradiation) was 0.2%, the IC50 [15] was 4.8 µM and the IC50 [16] was 0.764 ± 0.183 µM. The IC50 ([17]; read-out: Cisplatin IC50) was 13.6 ± 3.2 µM, the IC50 ([18]; read-out: Cisplatin IC50) was 4.6 ± 0.7 µM and the IC50 ([19]; read-out: Cisplatin IC50) was 4.6 ± 0.6 µM.

gemcitabine monophosphate [GMP] was tested, and the IC50 [17, 20] was 0.12 µM, the IC50 [18, 20] was 2.8 µM and the IC50 [19, 20] was 3.3 µM.
